Reference: US9409905B2, “Antibacterial compounds and methods for use” (PTC THERAPEUTICS, INC., priority 2011, dated 2016)
Converted amounts (≈) assume the structure as drawn.

What was measured:
E. coli LZ3111 = assay: Antibacterial activity, MIC, quinolone resistant strain (Table 2); type: cell-based; details: Escherichia coli, LZ3111, read-out: MIC LZ3111
Procedure, shortened: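 Lowest concentration giving no macroscopically visible growth was taken as the MIC (μg/mL) after microbroth dilution testing.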

E. coli 25922 = assay: Antibacterial activity, microbroth dilution MIC (Table 1); type: cell-based, Escherichia coli; details: Escherichia coli; microbroth dilution; control Gram-negative E. coli 25922 strain; read-out: MIC, 25922
Procedure, shortened: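 Growth inhibition by microbroth dilution. MIC = lowest μg/mL with no visible growth. Strain 25922 is the control Gram-negative; BAS849 is hypersensitive.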

[1] = test system: Escherichia coli (E. coli) BAS849; assay: as above; type: cell-based; details: microbroth dilution, super sensitive Gram-negative E. coli BAS849, read-out: MIC, BAS849
Procedure, shortened: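 Lowest concentration stopping macroscopically visible growth under test conditions, by broth microdilution, defines the MIC (μg/mL).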

[2] = test system: Staphylococcus aureus (S. aureus) 29213; assay: as above; type: cell-based; details: microbroth dilution, Gram-positive S. aureus 29213, read-out: MIC, 29213
Procedure, shortened: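 Values are MICs (μg/mL): the smallest drug amount at which macroscopically visible bacterial growth is absent under assay conditions, from a microdilution method in broth.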

Row | SMILES | MIC (E. coli LZ3111) [µg/mL] | MIC (E. coli 25922) [µg/mL] | MIC [1] [µg/mL] | MIC [2] [µg/mL]
1 | CCc1cc(C(=O)O)c(=O)[nH]c1-c1ccc2c(c1)cc(CNC(C)(C)c1ccccc1)n2C [Cpd 115, 5-ethyl-6-(1-methyl-2-((2-phenylpropan-2-ylamino)methyl)-1H-indol-5-yl)-2-oxo-1,2-dihydropyridine-3-carboxylic acid] | 12.5 to 150 (≈ 28.2 to 338 µM) | < 1 | < 1 | 1 to 3.5 (≈ 2.25 to 7.89 µM)
2 | CCc1cc(C(=O)O)c(=O)[nH]c1-c1ccc2c(c1)cc(CN[C@H](C)c1ccccc1)n2C [Cpd 116, (R)-5-ethyl-6-(1-methyl-2-((1-phenylethylamino)methyl)-1H-indol-5-yl)-2-oxo-1,2-dihydropyridine-3-carboxylic acid] | 12.5 to 150 (≈ 29.1 to 349 µM) | < 1 | < 1 | 1 to 3.5 (≈ 2.33 to 8.15 µM)
3 | CCc1cc(C(=O)O)c(=O)[nH]c1-c1ccc2c(c1)cc(CN[C@@H](C)c1ccccc1)n2C [Cpd 117, (S)-5-ethyl-6-(1-methyl-2-((1-phenylethylamino)methyl)-1H-indol-5-yl)-2-oxo-1,2-dihydropyridine-3-carboxylic acid] | 12.5 to 150 (≈ 29.1 to 349 µM) | < 1 | < 1 | 12.5 to 150 (≈ 29.1 to 349 µM)
4 | CCc1cc(C(=O)O)c(=O)[nH]c1-c1ccc2c(c1)cc(CN[C@H](CC)c1ccccc1)n2C [Cpd 118, (R)-5-ethyl-6-(1-methyl-2-((1-phenylpropylamino)methyl)-1H-indol-5-yl)-2-oxo-1,2-dihydropyridine-3-carboxylic acid] | 12.5 to 150 (≈ 28.2 to 338 µM) | 1 to 3.5 (≈ 2.25 to 7.89 µM) | < 1 | 1 to 3.5 (≈ 2.25 to 7.89 µM)
5 | CCc1cc(C(=O)O)c(=O)[nH]c1-c1ccc2c(c1)cc(CN[C@@H](CC)c1ccccc1)n2C [Cpd 119, (S)-5-ethyl-6-(1-methyl-2-((1-phenylpropylamino)methyl)-1H-indol-5-yl)-2-oxo-1,2-dihydropyridine-3-carboxylic acid] | 12.5 to 150 (≈ 28.2 to 338 µM) | 1 to 3.5 (≈ 2.25 to 7.89 µM) | < 1 | 3.5 to 12.5 (≈ 7.89 to 28.2 µM)
6 | CCc1cc(C(=O)O)c(=O)[nH]c1-c1ccc2c(c1)cc(CNCc1ccccn1)n2C [Cpd 120, 5-ethyl-6-(1-methyl-2-((pyridin-2-ylmethylamino)methyl)-1H-indol-5-yl)-2-oxo-1,2-dihydropyridine-3-carboxylic acid] | 12.5 to 150 (≈ 30 to 360 µM) | < 1 | < 1 | 3.5 to 12.5 (≈ 8.4 to 30 µM)
7 | CCc1cc(C(=O)O)c(=O)[nH]c1-c1ccc2c(c1)cc(CN1CC[C@H](N)C1)n2C [Cpd 126, (S)-6-(2-((3-aminopyrrolidin-1-yl)methyl)-1-methyl-1H-indol-5-yl)-5-ethyl-2-oxo-1,2-dihydropyridine-3-carboxylic acid] | 12.5 to 150 (≈ 31.7 to 380 µM) | 12.5 to 150 (≈ 31.7 to 380 µM) | 3.5 to 12.5 (≈ 8.87 to 31.7 µM) | 12.5 to 150 (≈ 31.7 to 380 µM)
8 | CCc1cc(C(=O)O)c(=O)[nH]c1-c1ccc2c(c1)cc(CN1CCC(NC)C1)n2C (stereo not drawn) [Cpd 127, 5-ethyl-6-(1-methyl-2-((3-(methylamino)pyrrolidin-1-yl)methyl)-1H-indol-5-yl)-2-oxo-1,2-dihydropyridine-3-carboxylic acid] | 12.5 to 150 (≈ 30.6 to 367 µM) | 12.5 to 150 (≈ 30.6 to 367 µM) | 1 to 3.5 (≈ 2.45 to 8.57 µM) | 12.5 to 150 (≈ 30.6 to 367 µM)
9 | CCc1cc(C(=O)O)c(=O)[nH]c1-c1ccc2c(c1)cc(CN1CCC(N(C)C)C1)n2C (stereo not drawn) [Cpd 128, 6-(2-((3-(dimethylamino)pyrrolidin-1-yl)methyl)-1-methyl-1H-indol-5-yl)-5-ethyl-2-oxo-1,2-dihydropyridine-3-carboxylic acid] | 12.5 to 150 (≈ 29.6 to 355 µM) | 1 to 3.5 (≈ 2.37 to 8.28 µM) | < 1 | 12.5 to 150 (≈ 29.6 to 355 µM)
10 | CCc1cc(C(=O)O)c(=O)[nH]c1-c1ccc2c(c1)cc(CN1CCc3ccccc3C1)n2C [Cpd 134, 6-(2-((3,4-dihydroisoquinolin-2(1H)-yl)methyl)-1-methyl-1H-indol-5-yl)-5-ethyl-2-oxo-1,2-dihydropyridine-3-carboxylic acid] | 12.5 to 150 (≈ 28.3 to 340 µM) | 1 to 3.5 (≈ 2.26 to 7.93 µM) | < 1 | 3.5 to 12.5 (≈ 7.93 to 28.3 µM)
11 | CCc1cc(C(=O)O)c(=O)[nH]c1-c1ccc2c(c1)cc(CN1Cc3cccnc3C1)n2C [Cpd 135, 6-(2-((5H-pyrrolo[3,4-b]pyridin-6(7H)-yl)methyl)-1-methyl-1H-indol-5-yl)-5-ethyl-2-oxo-1,2-dihydropyridine-3-carboxylic acid] | 12.5 to 150 (≈ 29.2 to 350 µM) | 3.5 to 12.5 (≈ 8.17 to 29.2 µM) | < 1 | 12.5 to 150 (≈ 29.2 to 350 µM)
12 | CCc1cc(C(=O)O)c(=O)[nH]c1-c1ccc2c(c1)cc(CN1CC3CCCNC3C1)n2C (stereo not drawn) [Cpd 136, 5-ethyl-6-(1-methyl-2-((tetrahydro-1H-pyrrolo[3,4-b]pyridin-6(2H,7H,7aH)-yl)methyl)-1H-indol-5-yl)-2-oxo-1,2-dihydropyridine-3-carboxylic acid] | 12.5 to 150 (≈ 28.8 to 345 µM) | 3.5 to 12.5 (≈ 8.05 to 28.8 µM) | 1 to 3.5 (≈ 2.3 to 8.05 µM) | 12.5 to 150 (≈ 28.8 to 345 µM)
13 | CCc1cc(C(=O)O)c(=O)[nH]c1-c1ccc2c(c1)cc(CN1C[C@@H](C)O[C@@H](C)C1)n2C [Cpd 138, 6-(2-((cis-2,6-dimethylmorpholino)methyl)-1-methyl-1H-indol-5-yl)-5-ethyl-2-oxo-1,2-dihydropyridine-3-carboxylic acid] | 12.5 to 150 (≈ 29.5 to 354 µM) | 3.5 to 12.5 (≈ 8.26 to 29.5 µM) | < 1 | 12.5 to 150 (≈ 29.5 to 354 µM)
14 | CCc1cc(C(=O)O)c(=O)[nH]c1-c1ccc2c(c1)cc(CN1CCNCC1)n2C [Cpd 139, 5-ethyl-6-(1-methyl-2-(piperazin-1-ylmethyl)-1H-indol-5-yl)-2-oxo-1,2-dihydropyridine-3-carboxylic acid] | 12.5 to 150 (≈ 31.7 to 380 µM) | 12.5 to 150 (≈ 31.7 to 380 µM) | 1 to 3.5 (≈ 2.54 to 8.87 µM) | 12.5 to 150 (≈ 31.7 to 380 µM)
15 | CCc1cc(C(=O)O)c(=O)[nH]c1-c1ccc2c(c1)cc(CN1CCN(C(C)C)CC1)n2C [Cpd 141, 5-ethyl-6-(2-((4-isopropylpiperazin-1-yl)methyl)-1-methyl-1H-indol-5-yl)-2-oxo-1,2-dihydropyridine-3-carboxylic acid] | 12.5 to 150 (≈ 28.6 to 344 µM) | 1 to 3.5 (≈ 2.29 to 8.02 µM) | < 1 | 12.5 to 150 (≈ 28.6 to 344 µM)
16 | CCc1cc(C(=O)O)c(=O)[nH]c1-c1ccc2c(c1)cc(CN1CC3CC1CN3)n2C (stereo not drawn) [Cpd 142, 6-(2-(2,5-diazabicyclo[2.2.1]heptan-2-ylmethyl)-1-methyl-1H-indol-5-yl)-5-ethyl-2-oxo-1,2-dihydropyridine-3-carboxylic acid] | 12.5 to 150 (≈ 30.8 to 369 µM) | 12.5 to 150 (≈ 30.8 to 369 µM) | 3.5 to 12.5 (≈ 8.61 to 30.8 µM) | 12.5 to 150 (≈ 30.8 to 369 µM)
17 | CCc1cc(C(=O)O)c(=O)[nH]c1-c1ccc2c(c1)cc(CN1C[C@@H]3[C@H](C1)[C@H]3N(Cc1ccccc1)Cc1ccccc1)n2C [Cpd 143, 6-(2-(((1R,5S,6s)-6-(dibenzylamino)-3-azabicyclo[3.1.0]hexan-3-yl)methyl)-1-methyl-1H-indol-5-yl)-5-ethyl-2-oxo-1,2-dihydropyridine-3-carboxylic acid] | 12.5 to 150 (≈ 21.3 to 256 µM) | 12.5 to 150 (≈ 21.3 to 256 µM) | < 1 | 3.5 to 12.5 (≈ 5.97 to 21.3 µM)
18 | CCc1cc(C(=O)O)c(=O)[nH]c1-c1ccc2c(c1)cc(CN1CCN(C(C)=O)CC1)n2C [Cpd 144, 6-(2-((4-acetylpiperazin-1-yl)methyl)-1-methyl-1H-indol-5-yl)-5-ethyl-2-oxo-1,2-dihydropyridine-3-carboxylic acid] | 12.5 to 150 (≈ 28.6 to 344 µM) | 3.5 to 12.5 (≈ 8.02 to 28.6 µM) | < 1 | 12.5 to 150 (≈ 28.6 to 344 µM)
19 | CCc1cc(C(=O)O)c(=O)[nH]c1-c1ccc2c(c1)cc(CN(C)C(C)=O)n2C [Cpd 145, 5-ethyl-6-(1-methyl-2-((N-methylacetamido)methyl)-1H-indol-5-yl)-2-oxo-1,2-dihydropyridine-3-carboxylic acid] | 12.5 to 150 (≈ 32.8 to 393 µM) | 3.5 to 12.5 (≈ 9.18 to 32.8 µM) | < 1 | 12.5 to 150 (≈ 32.8 to 393 µM)
20 | CCc1cc(C(=O)O)c(=O)[nH]c1-c1ccc2c(c1)cc(CN1C[C@H]3CCC[C@@H](N(C)Cc4ccccc4)[C@H]3C1)n2C [Cpd 146, 6-(2-(((3aR,4R,7aS)-4-(benzyl(methyl)amino)-1H-isoindol-2(3H,3aH,4H,5H,6H,7H,7aH)-yl)methyl)-1-methyl-1H-indol-5-yl)-5-ethyl-2-oxo-1,2-dihydropyridine-3-carboxylic acid] | 12.5 to 150 (≈ 22.6 to 271 µM) | 1 to 3.5 (≈ 1.81 to 6.33 µM) | < 1 | 12.5 to 150 (≈ 22.6 to 271 µM)
21 | CCc1cc(C(=O)O)c(=O)[nH]c1-c1ccc2c(c1)cc(CN1C[C@H]3CC[C@@H](N(C)C)[C@H]3C1)n2C [Cpd 147, 6-(2-(((3aR,4R,6aS)-4-(dimethylamino)hexahydrocyclopenta[c]pyrrol-2(1H)-yl)methyl)-1-methyl-1H-indol-5-yl)-5-ethyl-2-oxo-1,2-dihydropyridine-3-carboxylic acid] | 12.5 to 150 (≈ 27 to 324 µM) | < 1 | < 1 | 12.5 to 150 (≈ 27 to 324 µM)
